#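 Cells were grown in 96-well plates and exposed to each compound for 48 hours at five concentrations; endpoints were interpolated linearly between bracketing concentrations, or set to the highest concentration if not reached. GI50 marks 50% less growth.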 The source made the active and inactive calls. Rule as the data show it: active = GI50 up to about 1.1 µM and inactive = higher.
# How the values were obtained:
# Assay in all cases: inhibition of tumour cell growth, NCI panel, 48 h
# 786-0 = tested on: 786-0
# A549 = tested on: A549
# ACHN = tested on: ACHN
# BT-549 = tested on: BT-549
# CAKI-1 = tested on: CAKI-1
# CCRF-CEM = tested on: CCRF-CEM
# COLO 205 = tested on: COLO 205
# DU-145 = tested on: DU-145
# EKVX = tested on: EKVX
# HCC 2998 = tested on: HCC 2998
# HCT-116 = tested on: HCT-116
# HCT-15 = tested on: HCT-15
# HL-60 = tested on: HL-60
# HOP-62 = tested on: HOP-62
# HT-29 = tested on: HT-29
# Hs-578T = tested on: Hs-578T
# K562 = tested on: K562
# KM12 = tested on: KM12
# M14 = tested on: M14
# MCF7 = tested on: MCF7
# MDA-MB-231 = tested on: MDA-MB-231
# MDA-MB-435 = tested on: MDA-MB-435
# MDA-N = tested on: MDA-N
# MOLT-4 = tested on: MOLT-4
# NCI-H23 = tested on: NCI-H23
# NCI-H460 = tested on: NCI-H460
# NCI-H522 = tested on: NCI-H522
# NCI/ADR-RES = tested on: NCI/ADR-RES
# OVCAR-3 = tested on: OVCAR-3
# OVCAR-4 = tested on: OVCAR-4
# OVCAR-8 = tested on: OVCAR-8
# PC-3 = tested on: PC-3
# RPMI-8226 = tested on: RPMI-8226
# RXF 393 = tested on: RXF 393
# SF-268 = tested on: SF-268
# SF-295 = tested on: SF-295
# SF-539 = tested on: SF-539
# SK-MEL-28 = tested on: SK-MEL-28
# SK-MEL-5 = tested on: SK-MEL-5
# SK-OV-3 = tested on: SK-OV-3
# SN12C = tested on: SN12C
# SNB-19 = tested on: SNB-19
# SNB-75 = tested on: SNB-75
# SR = tested on: SR
# SW-620 = tested on: SW-620
# T47D = tested on: T47D
# TK-10 = tested on: TK-10
# U-251 = tested on: U-251
# UACC-257 = tested on: UACC-257
# UACC-62 = tested on: UACC-62
# UO-31 = tested on: UO-31
# A498 = tested on: A498
# HOP-92 = tested on: HOP-92
# IGROV-1 = tested on: IGROV-1
# LOX IMVI = tested on: LOX IMVI
# Malme-3M = tested on: Malme-3M
# NCI-H226 = tested on: NCI-H226
# OVCAR-5 = tested on: OVCAR-5
# SK-MEL-2 = tested on: SK-MEL-2
smiles,measurement,setting,value
COC(=O)c1ccc(/C=C2\Cc3ccccc3C2=O)cc1,GI50,786-0,> 100 µM (inactive)
same,GI50,A549,> 100 µM (inactive)
same,GI50,ACHN,> 100 µM (inactive)
same,GI50,BT-549,> 100 µM (inactive)
same,GI50,CAKI-1,> 100 µM (inactive)
same,GI50,CCRF-CEM,> 100 µM (inactive)
same,GI50,COLO 205,> 100 µM (inactive)
same,GI50,DU-145,> 100 µM (inactive)
same,GI50,EKVX,> 100 µM (inactive)
same,GI50,HCC 2998,> 100 µM (inactive)
same,GI50,HCT-116,> 100 µM (inactive)
same,GI50,HCT-15,> 100 µM
same,GI50,HL-60,> 100 µM (inactive)
same,GI50,HOP-62,> 100 µM (inactive)
same,GI50,HT-29,> 100 µM (inactive)
same,GI50,Hs-578T,> 100 µM (inactive)
same,GI50,K562,> 100 µM (inactive)
same,GI50,KM12,> 100 µM (inactive)
same,GI50,M14,> 100 µM (inactive)
same,GI50,MCF7,> 100 µM (inactive)
same,GI50,MDA-MB-231,> 100 µM (inactive)
same,GI50,MDA-MB-435,> 100 µM (inactive)
same,GI50,MDA-N,> 100 µM (inactive)
same,GI50,MOLT-4,> 100 µM (inactive)
same,GI50,NCI-H23,> 100 µM (inactive)
same,GI50,NCI-H460,> 100 µM (inactive)
same,GI50,NCI-H522,> 100 µM (inactive)
same,GI50,NCI/ADR-RES,> 100 µM (inactive)
same,GI50,OVCAR-3,> 100 µM (inactive)
same,GI50,OVCAR-4,> 100 µM (inactive)
same,GI50,OVCAR-8,> 100 µM (inactive)
same,GI50,PC-3,> 100 µM (inactive)
same,GI50,RPMI-8226,> 100 µM (inactive)
same,GI50,RXF 393,> 100 µM (inactive)
same,GI50,SF-268,> 100 µM (inactive)
same,GI50,SF-295,> 100 µM (inactive)
same,GI50,SF-539,> 100 µM (inactive)
same,GI50,SK-MEL-28,> 100 µM (inactive)
same,GI50,SK-MEL-5,> 100 µM (inactive)
same,GI50,SK-OV-3,> 100 µM (inactive)
same,GI50,SN12C,> 100 µM (inactive)
same,GI50,SNB-19,> 100 µM (inactive)
same,GI50,SNB-75,> 100 µM (inactive)
same,GI50,SR,> 100 µM (inactive)
same,GI50,SW-620,> 100 µM (inactive)
same,GI50,T47D,> 100 µM (inactive)
same,GI50,TK-10,> 100 µM (inactive)
same,GI50,U-251,> 100 µM (inactive)
same,GI50,UACC-257,> 100 µM (inactive)
same,GI50,UACC-62,> 100 µM (inactive)
same,GI50,UO-31,> 100 µM (inactive)
Nc1nc(Cl)cc(NCC2(CO)CCC(CCc3ccccc3)C2)n1 (stereo not drawn),GI50,786-0,15.7 µM (inactive)
same,GI50,A498,12.8 µM (inactive)
same,GI50,A549,12.6 µM (inactive)
same,GI50,ACHN,13.8 µM (inactive)
same,GI50,BT-549,14 µM (inactive)
same,GI50,CAKI-1,13.5 µM (inactive)
same,GI50,COLO 205,12.8 µM (inactive)
same,GI50,DU-145,14.8 µM (inactive)
same,GI50,EKVX,0.771 µM (active)
same,GI50,HCC 2998,17.5 µM (inactive)
same,GI50,HCT-116,2.29 µM (inactive)
same,GI50,HCT-15,16.3 µM
same,GI50,HL-60,6.21 µM (inactive)
same,GI50,HOP-62,1.05 µM (active)
same,GI50,HOP-92,15.5 µM (inactive)
same,GI50,HT-29,7.94 µM (inactive)
same,GI50,Hs-578T,21.3 µM (inactive)
same,GI50,IGROV-1,17.5 µM (inactive)
same,GI50,K562,0.962 µM (active)
same,GI50,KM12,13.9 µM (inactive)
same,GI50,LOX IMVI,7.89 µM (inactive)
same,GI50,M14,13.7 µM (inactive)
same,GI50,MCF7,11.7 µM (inactive)
same,GI50,MDA-MB-231,16.6 µM (inactive)
same,GI50,MDA-MB-435,14.3 µM (inactive)
same,GI50,MDA-N,14.2 µM (inactive)
same,GI50,MOLT-4,2.7 µM (inactive)
same,GI50,Malme-3M,16 µM (inactive)
same,GI50,NCI-H226,16.5 µM (inactive)
same,GI50,NCI-H23,2.88 µM (inactive)
same,GI50,NCI-H460,12 µM (inactive)
same,GI50,NCI-H522,11.4 µM (inactive)
same,GI50,NCI/ADR-RES,11.9 µM (inactive)
same,GI50,OVCAR-3,7.45 µM (inactive)
same,GI50,OVCAR-4,11.9 µM (inactive)
same,GI50,OVCAR-5,14.5 µM (inactive)
same,GI50,OVCAR-8,14.6 µM (inactive)
same,GI50,PC-3,19.3 µM (inactive)
same,GI50,RPMI-8226,2.86 µM (inactive)
same,GI50,RXF 393,14.8 µM (inactive)
same,GI50,SF-268,16.6 µM (inactive)
same,GI50,SF-295,0.687 µM (active)
same,GI50,SF-539,17.9 µM (inactive)
same,GI50,SK-MEL-28,19.6 µM (inactive)
same,GI50,SK-MEL-2,18.5 µM (inactive)
same,GI50,SK-MEL-5,0.0665 µM (active)
same,GI50,SK-OV-3,17.5 µM (inactive)
same,GI50,SN12C,16 µM (inactive)
same,GI50,SNB-19,15.9 µM (inactive)
same,GI50,SNB-75,20.8 µM (inactive)
same,GI50,SW-620,2.02 µM (inactive)
same,GI50,T47D,0.877 µM (active)
same,GI50,TK-10,18 µM (inactive)
same,GI50,U-251,15 µM (inactive)
same,GI50,UACC-257,6.22 µM (inactive)
same,GI50,UACC-62,13.2 µM (inactive)
same,GI50,UO-31,18 µM (inactive)

# From ChEMBL document CHEMBL1201862, “PubChem BioAssay data set” (2004)
